Test results taken from ChEMBL document CHEMBL1201862, “PubChem BioAssay data set” (2004).
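Method: 48-hour compound exposure of cells in 96-well plates, five concentrations, linear interpolation of endpoints. GI50 marks 50% less growth.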 Active and inactive are the calls of the source. Cut-off read from the data, not from the text of the source: active = GI50 up to about 1.1 µM and inactive = higher.

What was measured:
Assay in all cases: NCI-60 cell line screen, 48 h
[1] = test system: CCRF-CEM
[2] = test system: COLO 205
[3] = test system: HT-29
[4] = test system: MOLT-4
[5] = test system: SK-OV-3
[6] = test system: NCI-H23
[7] = test system: SF-539
[8] = test system: IGROV-1
[9] = test system: SN12C
[10] = test system: 786-0
[11] = test system: Malme-3M
[12] = test system: M14
[13] = test system: UACC-62
[14] = test system: SF-295
[15] = test system: UO-31
[16] = test system: DMS-114
[17] = test system: CAKI-1
[18] = test system: OVCAR-4
[19] = test system: HCT-15
[20] = test system: HCC 2998
[21] = test system: SK-MEL-2
[22] = test system: HOP-62
[23] = test system: KM-20L2
[24] = test system: A549
[25] = test system: NCI-H460
[26] = test system: LOX IMVI
[27] = test system: OVCAR-3
[28] = test system: NCI-H226
[29] = test system: SR
[30] = test system: HCT-116
[31] = test system: M19-MEL
[32] = test system: UACC-257
[33] = test system: HOP-92
[34] = test system: EKVX
[35] = test system: K562
[36] = test system: HL-60
[37] = test system: SF-268
[38] = test system: RXF 393
[39] = test system: SW-620
[40] = test system: DLD-1
[41] = test system: SK-MEL-28
[42] = test system: OVCAR-5
[43] = test system: OVCAR-8
[44] = test system: LXFL 529
[45] = test system: KM12
[46] = test system: SNB-19
[47] = test system: U-251
[48] = test system: ACHN
[49] = test system: TK-10
[50] = test system: RPMI-8226
[51] = test system: DMS-273
[52] = test system: A498
[53] = test system: SNB-78
[54] = test system: NCI-H522
[55] = test system: SNB-75
[56] = test system: HOP-18
[57] = test system: SK-MEL-5
[58] = test system: BT-549
[59] = test system: MCF7
[60] = test system: MDA-N
[61] = test system: PC-3
[62] = test system: MDA-MB-231
[63] = test system: NCI/ADR-RES
[64] = test system: MDA-MB-435
[65] = test system: DU-145
[66] = test system: Hs-578T

COc1ccc(NC(=O)CC/C(CC(=O)C(C)(C)C)=N\NC(=O)C(N)=O)cc1
GI50 [1]: > 100 µM (inactive)
GI50 [2]: > 100 µM (inactive)
GI50 [3]: > 100 µM (inactive)
GI50 [4]: > 100 µM (inactive)
GI50 [5]: > 100 µM (inactive)
GI50 [6]: > 100 µM (inactive)
GI50 [7]: > 100 µM (inactive)
GI50 [8]: > 100 µM (inactive)
GI50 [9]: > 100 µM (inactive)
GI50 [10]: > 100 µM (inactive)
GI50 [11]: > 100 µM (inactive)
GI50 [12]: > 100 µM (inactive)
GI50 [13]: > 100 µM (inactive)
GI50 [14]: > 100 µM (inactive)
GI50 [15]: > 100 µM (inactive)
GI50 [16]: > 100 µM (inactive)
GI50 [17]: > 100 µM (inactive)
GI50 [18]: > 100 µM (inactive)
GI50 [19]: > 100 µM
GI50 [20]: > 100 µM (inactive)
GI50 [21]: > 100 µM (inactive)
GI50 [22]: > 100 µM (inactive)
GI50 [23]: > 100 µM (inactive)
GI50 [24]: > 100 µM (inactive)
GI50 [25]: > 100 µM (inactive)
GI50 [26]: > 100 µM (inactive)
GI50 [27]: > 100 µM (inactive)
GI50 [28]: > 100 µM (inactive)
GI50 [29]: > 100 µM (inactive)
GI50 [30]: > 100 µM (inactive)
GI50 [31]: > 100 µM (inactive)
GI50 [32]: > 100 µM (inactive)
GI50 [33]: > 100 µM (inactive)
GI50 [34]: > 100 µM (inactive)
GI50 [35]: 84.9 µM (inactive)
GI50 [36]: > 100 µM (inactive)
GI50 [37]: > 100 µM (inactive)
GI50 [38]: > 100 µM (inactive)
GI50 [39]: > 100 µM (inactive)
GI50 [40]: > 100 µM (inactive)
GI50 [41]: > 100 µM (inactive)
GI50 [42]: > 100 µM (inactive)
GI50 [43]: > 100 µM (inactive)
GI50 [44]: 79.4 µM (inactive)
GI50 [45]: > 100 µM (inactive)
GI50 [46]: > 100 µM (inactive)
GI50 [47]: > 100 µM (inactive)
GI50 [48]: > 100 µM (inactive)

CCCCN/C(=N\C#N)N(Cc1ccccc1)Cc1ccccc1
GI50 [1]: 16.7 µM (inactive)
GI50 [2]: 18.4 µM (inactive)
GI50 [3]: 14.7 µM (inactive)
GI50 [4]: 17.5 µM (inactive)
GI50 [5]: 29.7 µM (inactive)
GI50 [6]: 24.6 µM (inactive)
GI50 [7]: 22.2 µM (inactive)
GI50 [8]: 22.2 µM (inactive)
GI50 [49]: 31.6 µM (inactive)
GI50 [9]: 27.7 µM (inactive)
GI50 [10]: 29.9 µM (inactive)
GI50 [11]: 37.2 µM (inactive)
GI50 [12]: 20.1 µM (inactive)
GI50 [50]: 16.6 µM (inactive)
GI50 [13]: 15.4 µM (inactive)
GI50 [14]: 23.4 µM (inactive)
GI50 [15]: 20.7 µM (inactive)
GI50 [51]: 16.1 µM (inactive)
GI50 [17]: 29.1 µM (inactive)
GI50 [52]: 17.3 µM (inactive)
GI50 [18]: 27.3 µM (inactive)
GI50 [19]: 16.3 µM
GI50 [20]: 11.9 µM (inactive)
GI50 [21]: 15.2 µM (inactive)
GI50 [22]: 26.6 µM (inactive)
GI50 [53]: 18.2 µM (inactive)
GI50 [23]: 20.8 µM (inactive)
GI50 [24]: 37.2 µM (inactive)
GI50 [25]: 58.5 µM (inactive)
GI50 [26]: 15.5 µM (inactive)
GI50 [27]: 23.8 µM (inactive)
GI50 [28]: 41.7 µM (inactive)
GI50 [30]: 20.8 µM (inactive)
GI50 [31]: 18.1 µM (inactive)
GI50 [32]: 20.5 µM (inactive)
GI50 [33]: 17.6 µM (inactive)
GI50 [54]: 15 µM (inactive)
GI50 [34]: 28.2 µM (inactive)
GI50 [35]: 16.6 µM (inactive)
GI50 [36]: 18.9 µM (inactive)
GI50 [37]: 38.1 µM (inactive)
GI50 [38]: 45.2 µM (inactive)
GI50 [39]: 16 µM (inactive)
GI50 [40]: 19.1 µM (inactive)
GI50 [55]: 31.5 µM (inactive)
GI50 [41]: 34.2 µM (inactive)
GI50 [42]: 23.5 µM (inactive)
GI50 [43]: 37 µM (inactive)
GI50 [44]: 16.9 µM (inactive)
GI50 [45]: 28.2 µM (inactive)
GI50 [56]: 39.8 µM (inactive)
GI50 [57]: 13.3 µM (inactive)
GI50 [46]: 35.7 µM (inactive)
GI50 [47]: 28.5 µM (inactive)
GI50 [48]: 29.7 µM (inactive)

Cc1c2cc[n+](C)cc2c(C)c2c1oc1ccccc12
GI50 [1]: 3.18 µM (inactive)
GI50 [2]: 3.51 µM (inactive)
GI50 [3]: 14.4 µM (inactive)
GI50 [4]: 2.74 µM (inactive)
GI50 [5]: 14.7 µM (inactive)
GI50 [6]: 2.24 µM (inactive)
GI50 [7]: 2.24 µM (inactive)
GI50 [8]: 4.74 µM (inactive)
GI50 [49]: 31.4 µM (inactive)
GI50 [9]: 0.475 µM (active)
GI50 [10]: 1.17 µM (inactive)
GI50 [58]: 0.608 µM (active)
GI50 [11]: 1.6 µM (inactive)
GI50 [12]: 14.6 µM (inactive)
GI50 [50]: 4.2 µM (inactive)
GI50 [13]: 5.62 µM (inactive)
GI50 [14]: 1.69 µM (inactive)
GI50 [15]: 68.7 µM (inactive)
GI50 [16]: 1.31 µM (inactive)
GI50 [51]: 3.57 µM (inactive)
GI50 [17]: 28.4 µM (inactive)
GI50 [52]: 42.9 µM (inactive)
GI50 [18]: 7.14 µM (inactive)
GI50 [19]: > 87.3 µM
GI50 [59]: 6.37 µM (inactive)
GI50 [20]: 2.75 µM (inactive)
GI50 [21]: 4.13 µM (inactive)
GI50 [22]: 2.06 µM (inactive)
GI50 [53]: 4.02 µM (inactive)
GI50 [23]: 9.98 µM (inactive)
GI50 [60]: 11 µM (inactive)
GI50 [24]: 1.95 µM (inactive)
GI50 [25]: 3.24 µM (inactive)
GI50 [26]: 11.4 µM (inactive)
GI50 [61]: 6.38 µM (inactive)
GI50 [27]: 2.65 µM (inactive)
GI50 [28]: 2.19 µM (inactive)
GI50 [29]: 4.85 µM (inactive)
GI50 [62]: 12.9 µM (inactive)
GI50 [30]: 6.43 µM (inactive)
GI50 [31]: 2.64 µM (inactive)
GI50 [32]: 4.29 µM (inactive)
GI50 [33]: 6.5 µM (inactive)
GI50 [54]: 1.95 µM (inactive)
GI50 [34]: 5.5 µM (inactive)
GI50 [35]: 6.38 µM (inactive)
GI50 [36]: 12 µM (inactive)
GI50 [63]: > 100 µM (inactive)
GI50 [37]: 0.406 µM (active)
GI50 [38]: 15.2 µM (inactive)
GI50 [64]: 7.83 µM (inactive)
GI50 [65]: 15.9 µM (inactive)
GI50 [39]: 3 µM (inactive)
GI50 [40]: 8.57 µM (inactive)
GI50 [55]: 1.98 µM (inactive)
GI50 [41]: 6.85 µM (inactive)
GI50 [42]: 15.6 µM (inactive)
GI50 [66]: 0.54 µM (active)
GI50 [43]: 1.67 µM (inactive)
GI50 [44]: 1.54 µM (inactive)
GI50 [45]: 1.62 µM (inactive)
GI50 [56]: 6.82 µM (inactive)
GI50 [57]: 3.41 µM (inactive)
GI50 [46]: 0.893 µM (active)
GI50 [47]: 0.652 µM (active)
GI50 [48]: 39.6 µM (inactive)
